Measurements: patent US8962657B2, “Aryl derivatives and uses thereof” (Jacobus Pharmaceutical Company, Inc., priority 2012, dated 2015)
Like-named read-outs stand apart in the source and are kept apart here. Marks after values point to notes of the source that are not given here.

Columns and labels:
[1] = system: Plasmodium berghei (KBG-173 strain); assay: Plasmodium berghei assay in vivo (modified Thompson Test), survival of infected mice; design: species or system Charles River CD-1 mice; settings: for Average Days Survival: 31 day experiment
Description: In vivo antimalarial activity was tested in male or female Charles River CD-1 mice that were 4-5 weeks old and weighed 20-25 g They were housed in groups of 3 or 4 in standard plastic cages with wire tops, Bed-o-cob® bedding, 12 hr/day of light, and maintained at 75° F. They were fed a standard Ralston Purina mouse chow and the cages and bottles were changed twice a week. Test compounds were ground in a mortar and pestle and diluted with enough vehicle to give a volume of 10 mL/kg of mouse weight. The oral doses were prepared in 0.5% hydroxyethylcellulose (Union Carbide Corp. WP 4400)/0.1% Tween-80 (Fisher Scientific T164-500). The amount of drug was calculated on the free base weight. The mice were infected intraperitoneally on day 0 with 5×10^4 erythrocytes parasitized with Plasmodium berghei (KBG-173 strain) from a donor mouse having a parasitemia between 5-10%. On days 3, 4 and 5 the test compounds were administered bid, spaced 6 hr apart, by oral gavage to the mice. Activity was measured by survival, with full activity defined as all animals living at day 31. Partial activity is defined as days of increased survival versus the infected non-treated controls. This in vivo model is a modification of the Thompson Test. For further description see Ager, A. L, Jr. Rodent Malaria Models. In Handbook of Experimental Pharmacology: Antimalarial Drugs. 1. 68/1; Peters, W., Richards, W. H. G., Eds.: Springer-Verlag: Berlin, 1984, pp. 231-33.

[2] = system: P. falciparum strain W2 (resistant to chloroquine and pyrimethamine); assay: [3H]-hypoxanthine growth inhibition assay, P. falciparum W2; assay type: cell-based; settings: Plasmodium falciparum, W2, read-out: W2 IC50
Description: (§1) The potential for antimalarial activity against Plasmodium falciparum was determined by measuring the incorporation of tritiated hypoxanthine into parasitized red blood cells.
(§2) Stock solutions of the test compounds and the reference drug chloroquine (CQ) (Sigma Chemicals C-6628, Lot #059H0919) were prepared in silanized glass vials with AquaSil™ (Pierce, USA) to minimize absorption of the compounds to glassware. All test compounds were dissolved in DMSO (Sigma Cat No. # D8418) to 1 mM concentration, whereas CQ was dissolved in 50% methanol at a concentration of 1.6 mg/ml (base). Stock solutions were stored at −20° C.
(§3) The P. falciparum laboratory adapted strains utilized in this project (Table 1) were in vitro cultured and routinely maintained in RPMI-1640-LPLF complete medium, which contained low concentrations of para-amino benzoic acid (0.0005 mg/L) and folic acid (0.01 mg/L).
(§4) The low concentration of folic acid in RPMI-1640-LPLF prevents inhibition of the compound if its activity targets the parasite's folate metabolic pathway. Parasites were cultured in human red blood cells (RBCs) in vitro at 37° C. in special gas mixture (5% O2, 5% CO2 and 90% N2) as described Trager and Jensen (1979 Science 193:673-675).
(§5) Base cultivation medium consisted of 10.4 g/L RPMI-1640-LPLF powder (Gibco BRL), 5.97 g/L HEPES buffer (MP Biomedicals, USA), 2.0 g/L D-glucose (BDH chemicals, Australia), 0.05 g/L hypoxanthine (Sigma, USA) and 40 mg/L gentamycin (Pfizer, Australia). The pH of the medium was adjusted to 6.9 and the solution was filtered using 0.2 μm pore size (AcroCap, Gelman Science, USA). […] For [^3H]-hypoxanthine inhibition growth assay, RPMI-1640-LPLF complete medium which lacked [^3H]-hypoxanthine ([^3H]-RPMI-1640-LPLF) was used to prevent uptake of hypoxanthine by parasites, as radioactive hypoxanthine uptake is measured as a surrogate marker of growth. […]
(§6) Red blood cells (RBC) were required for P. falciparum parasites to proliferate in vitro. […] Following the final wash, the haematocrit was measured as the percent of RBC to total culture volume. […]

[3] = system: P. falciparum strain D6 (sensitive to chloroquine and pyrimethamine); assay: [3H]-hypoxanthine growth inhibition assay, P. falciparum D6; assay type: cell-based; settings: Plasmodium falciparum, D6, read-out: D6 IC50
Description: as §1, §2, §3, §4, §5, §6

[4] = 4 mg/kg/day, oral bid on days 3, 4 and 5
[5] = 16 mg/kg/day, oral bid on days 3, 4 and 5
[6] = 64 mg/kg/day, oral bid on days 3, 4 and 5
[7] = 128 mg/kg/day, oral bid on days 3, 4 and 5
[8] = Plasmodium berghei, po, 744 h, read-out: Number of mice alive at day 31
[9] = 8 mg/kg/day, oral bid on days 3, 4 and 5
[10] = 32 mg/kg/day, oral bid on days 3, 4 and 5
[11] = Plasmodium berghei, 744 h, 4 mg/kg/day, oral bid on days 3, 4 and 5, read-out: Number of mice alive at day 31 (converted)
[12] = Plasmodium berghei, 744 h, 8 mg/kg/day, oral bid on days 3, 4 and 5, read-out: Number of mice alive at day 31 (converted)
[13] = Plasmodium berghei, 744 h, 16 mg/kg/day, oral bid on days 3, 4 and 5, read-out: Number of mice alive at day 31 (converted)
[14] = Plasmodium berghei, 744 h, 32 mg/kg/day, oral bid on days 3, 4 and 5, read-out: Number of mice alive at day 31 (converted)
[15] = Plasmodium berghei, 744 h, 64 mg/kg/day, oral bid on days 3, 4 and 5, read-out: Number of mice alive at day 31 (converted)
[16] = 2 mg/kg/day, oral bid on days 3, 4 and 5
[17] = Plasmodium berghei, 744 h, 2 mg/kg/day, oral bid on days 3, 4 and 5, read-out: Number of mice alive at day 31 (converted)

Row | SMILES | Average Days Survival [1, 4] | Average Days Survival [1, 5] | Average Days Survival [1, 6] | Average Days Survival [1, 9] | Average Days Survival [1, 10] | responders at 4 mg/kg [1, 11] [%] | responders at 8 mg/kg [1, 12] [%] | responders at 16 mg/kg [1, 13] [%] | responders at 32 mg/kg [1, 14] [%] | Average Days Survival [1, 16] [days] | responders at 2 mg/kg [1, 17] [%] | also measured
1 | CCN(CC)CCCC(C)Nc1ccnc2cc(Cl)ccc12 (stereo not shown) [Chloroquine, chloroquine, reference compound] | 10.3 days | >18.8 days | >18.6 days |  |  |  |  |  |  |  |  | Average Days Survival [1, 7]: >21.3 days; responders at 4 mg/kg [1, 8]: 0%; responders at 16 mg/kg [1, 8]: 14.3%; responders at 64 mg/kg [1, 8]: 28.6%; responders at 128 mg/kg [1, 8]: 57.1%; IC50 [2]: 133 nM; IC50 [3]: 12 nM
2 | CC(C)(C)NCc1cc(C(C)(C)C)cc(-c2ccc(OC(F)(F)F)cc2)c1O [Example 5, 5-(tert-Butyl)-3-((tert-butylamino)methyl)-4′-(trifluoromethoxy)-[1,1′-biphenyl]-2-ol] | >19.3 days | >31* Days | >31* Days | >31* Days | >31* Days | 42.9 | 100 | 100 | 100 |  |  | Average Days Survival [1, 7]: >31* Days; Average Days Survival ([1]; 256 mg/kg/day, oral bid on days 3, 4 and 5): >31* Days; responders at 64 mg/kg [1, 15]: 100%; responders at 128 mg/kg ([1]; Plasmodium berghei, 744 h, 128 mg/kg/day, oral bid on days 3, 4 and 5, read-out: Number of mice alive at day 31 (converted)): 100%; responders at 256 mg/kg ([1]; Plasmodium berghei, 744 h, 256 mg/kg/day, oral bid on days 3, 4 and 5, read-out: Number of mice alive at day 31 (converted)): 100%
3 | CC(C)(C)NCc1cc(C(C)(C)C)cc(-c2cc(C(F)(F)F)cc(C(F)(F)F)c2)c1O.Cl [Example 16, 5-(tert-Butyl)-3-((tert-butylamino)methyl)-3′,5′-bis(trifluoromethyl)-[1,1′-biphenyl]-2-ol hydrochloride] | >17 days | >31* Days |  | >31* Days | >31* Days | 85.7 | 100 | 100 | 100 | >20.5 | 42.9 | 
4 | CC1(NCc2cc(C(C)(C)C)cc(-c3ccc(OC(F)(F)F)cc3)c2O)CCC1.Cl [Example 18, 5-(tert-Butyl)-3-(((1-methylcyclobutyl)amino)methyl)-4′-(trifluoromethoxy)-[1,1′-biphenyl]-2-ol hydrochloride] | 15.7 days | >31* Days |  | >31* Days | >31* Days | 0 | 100 | 100 | 100 |  |  | 
5 | CC(C)(C)NCc1cc(C(C)(C)C)cc(-c2ccc(Cl)c(Cl)c2)c1O.Cl [Example 19, 5-(tert-Butyl)-3-((tert-butylamino)methyl)-3′,4′-dichloro-[1,1′-biphenyl]-2-ol hydrochloride] | >31* Days | >31* Days |  | >31* Days |  | 100 | 100 | 100 |  | >7 | 85.7 | Average Days Survival ([1]; 1 mg/kg/day, oral bid on days 3, 4 and 5): >19.6 days; responders at 1 mg/kg ([1]; Plasmodium berghei, 744 h, 1 mg/kg/day, oral bid on days 3, 4 and 5, read-out: Number of mice alive at day 31 (converted)): 28.6%
6 | CC(C)(C)NCc1cc(C(C)(C)C)cc(-c2ccc(C(F)(F)F)cc2)c1O.Cl [Example 22, 5-(tert-Butyl)-3-((tert-butylamino)methyl)-4′-(trifluoromethyl)-[1,1′-biphenyl]-2-ol hydrochloride] | >24 days | >31* Days | >31* Days | >31* Days | >31* Days | 85.7 | 100 | 100 | 100 | >16.8 | 28.6 | responders at 64 mg/kg [1, 15]: 100%
7 | CC(C)(C)NCc1cc(C(C)(C)C)cc(-c2ccc(F)c(Cl)c2)c1O.Cl [Example 24, 5-(tert-Butyl)-3-((tert-butylamino)methyl)-3′-chloro-4′-fluoro-[1,1′-biphenyl]-2-ol hydrochloride] | >14.5 days | >31* Days |  | >16 days | >31* Days | 71.4 | 85.7 | 100 | 100 | >17 | 42.9 | 
8 | CC(C)(C)NCc1cc(-c2ccc(Cl)cc2)cc(-c2ccc(Cl)c(Cl)c2)c1O.Cl [Example 39, 5′-((tert-Butylamino)methyl)-3″,4,4″-trichloro-[1,1′:3′,1″-terphenyl]-4′-ol hydrochloride] | >31* Days | >31* Days |  | >31* Days |  | 100 | 100 | 100 |  | >23 | 14.3 | 
